Results from ChEMBL document CHEMBL5390318, “2-Amino-5-arylethynyl-thiophen-3-yl-(phenyl)methanones as A1 Adenosine Receptor Positive Allosteric Modulators” (ACS Med Chem Lett, 2023).

Experiments:
Translocator protein = Translocator protein (Homo sapiens, UniProt P30536); test: Binding affinity to TSPO (unknown origin)
[1] = biological target: Sigma intracellular receptor 2 (Homo sapiens, UniProt Q5BJF2); test: Binding affinity to sigma 2 receptor (unknown origin)
[2] = biological target: Beta-3 adrenergic receptor (Homo sapiens, UniProt P13945); test: Binding affinity to beta3 adrenergic receptor (unknown origin)
Beta-3 adrenergic receptor, sequence (P13945 whole entry): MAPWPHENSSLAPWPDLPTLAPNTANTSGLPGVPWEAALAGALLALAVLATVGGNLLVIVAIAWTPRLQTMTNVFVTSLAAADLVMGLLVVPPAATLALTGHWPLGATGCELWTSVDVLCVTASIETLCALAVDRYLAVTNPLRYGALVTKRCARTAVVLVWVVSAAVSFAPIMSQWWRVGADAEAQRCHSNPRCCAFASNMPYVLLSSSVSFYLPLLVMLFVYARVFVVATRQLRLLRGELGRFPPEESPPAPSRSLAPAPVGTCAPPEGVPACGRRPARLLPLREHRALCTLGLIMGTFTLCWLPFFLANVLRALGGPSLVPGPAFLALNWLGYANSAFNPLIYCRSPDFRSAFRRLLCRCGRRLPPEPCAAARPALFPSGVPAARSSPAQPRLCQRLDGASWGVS

[3] = biological target: 5-hydroxytryptamine receptor 7 (Homo sapiens, UniProt P34969); test: Binding affinity to 5HT-7A receptor (unknown origin)
5-hydroxytryptamine receptor 7, sequence (P34969 whole entry): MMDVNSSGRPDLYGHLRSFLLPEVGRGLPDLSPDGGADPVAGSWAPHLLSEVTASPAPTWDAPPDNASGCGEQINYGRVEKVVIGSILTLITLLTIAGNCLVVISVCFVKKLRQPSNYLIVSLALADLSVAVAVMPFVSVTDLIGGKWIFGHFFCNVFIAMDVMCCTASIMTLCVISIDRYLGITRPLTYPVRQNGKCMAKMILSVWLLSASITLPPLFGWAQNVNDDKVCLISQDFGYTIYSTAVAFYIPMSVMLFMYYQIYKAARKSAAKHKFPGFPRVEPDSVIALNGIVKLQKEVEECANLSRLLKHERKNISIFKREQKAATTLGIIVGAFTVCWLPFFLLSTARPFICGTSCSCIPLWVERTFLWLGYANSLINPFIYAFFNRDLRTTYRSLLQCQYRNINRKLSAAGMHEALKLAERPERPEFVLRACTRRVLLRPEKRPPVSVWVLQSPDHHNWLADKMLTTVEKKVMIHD

Translocator protein, sequence (P30536 whole entry): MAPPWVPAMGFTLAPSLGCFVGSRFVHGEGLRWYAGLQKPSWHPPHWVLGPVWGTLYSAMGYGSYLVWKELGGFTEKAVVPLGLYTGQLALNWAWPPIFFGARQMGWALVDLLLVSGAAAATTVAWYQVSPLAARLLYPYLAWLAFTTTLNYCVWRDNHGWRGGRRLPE
Sigma intracellular receptor 2, sequence (Q5BJF2 whole entry): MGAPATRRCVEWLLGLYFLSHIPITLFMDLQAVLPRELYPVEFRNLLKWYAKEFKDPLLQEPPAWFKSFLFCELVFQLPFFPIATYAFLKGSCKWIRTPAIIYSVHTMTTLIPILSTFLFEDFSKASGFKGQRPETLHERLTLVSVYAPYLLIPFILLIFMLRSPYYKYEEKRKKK

Ki (Translocator protein): 0.56 µM
Ki [1]: 1.4 µM
Ki [2]: 3.5 µM
Ki [3]: 5.7 µM
SMILES: CC(C)(C)Cc1c(C#Cc2ccccc2F)sc(N)c1C(=O)c1ccc(Cl)cc1
